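Dose response: 5 concentrations. Exposure: 48 h. Format: 96-well plates. Endpoint: linear interpolation; highest concentration if not reached. Here, GI50 denotes the concentration required for 50% inhibition of growth. At the TGI there is no net growth.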
Legend:
Assay in all cases: inhibition of tumour cell growth, NCI panel, 48 h
[1] = test system: IGROV1 ovarian
[2] = test system: HCC-2998 colon
[3] = test system: CCRF-CEM leukemia
[4] = test system: SNB-19 CNS
[5] = test system: NCI-H460 lung
[6] = test system: OVCAR-5 ovarian
[7] = test system: SK-MEL-5 melanoma
[8] = test system: MALME-3M melanoma
[9] = test system: KM12 colon
[10] = test system: SN12C renal

SMILES | TGI [1] [µM] | TGI [2] [µM] | TGI [3] [µM] | TGI [4] [µM] | TGI [5] [µM] | TGI [6] [µM] | TGI [7] [µM] | TGI [8] [µM] | TGI [9] [µM] | TGI [10] [µM] | GI50 [1] [µM] | GI50 [2] [µM] | GI50 [3] [µM] | GI50 [4] [µM] | GI50 [5] [µM] | GI50 [6] [µM] | GI50 [7] [µM] | GI50 [8] [µM] | GI50 [9] [µM] | GI50 [10] [µM]
COc1ccc(CC(CO)NC(=O)OCc2ccccc2)cc1Oc1ccc(CC(CO)NC(=O)OCc2ccccc2)cc1 (stereo not given) | 29.3 | 93.6 | 66.6 | 51.8 | 66.6 | 30.9 | > 100 | 31.4 | 26.9 | 39.3 |  |  |  |  |  |  |  |  |  | 
CC(=O)OC(C)c1cc2c(s1)C(=O)c1sccc1C2=O (stereo not given) | 4.19 | 3.54 | > 100 | 2.82 | 2.36 | 3.3 | 0.32 | 0.407 | 3.36 | 2.26 |  |  |  |  |  |  |  |  |  | 
Oc1ccc(-c2nnc3sc(-c4ccc(F)cc4)nn23)cc1 | > 100 | > 100 | > 100 | > 100 | > 100 | > 100 | > 100 | > 100 | > 100 | > 100 | 55.8 | > 100 | 55.7 | 21.3 | > 100 | > 100 | 70.4 | > 100 | > 100 | 42.5
